Data from PubChem BioAssay AID256 (DTP/NCI, 2004).
Several values for one entry are separate records, joined by “and”; a condition that tells them apart may be missing. Equal values may be shown once. Inconclusive results and toxic doses are left out. The calls were made as follows: active = survival T/C of 150% or more; inactive = T/C below 125% in these data.

Test system: CD2F1 mice, L1210 leukemia ip, survival T/C
Assay: NCI In Vivo Anticancer Drug Screen. Data for tumor model L1210 Leukemia (intraperitoneal) in CD2F1 (CDF1) mice
Details: higher = longer survival
In short: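 Implant tumor; dose compound or vehicle; measure endpoint in both groups; report treated divided by control.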

[1] = endpoint: mean survival time, dose: 100.0 mg/kg/injection, schedule: Q01DX001 (ip), vehicle: saline
[2] = endpoint: mean survival time, dose: 100.0 mg/kg/injection, schedule: Q04DX003 (ip), vehicle: saline
[3] = endpoint: mean survival time, dose: 200.0 mg/kg/injection, schedule: Q04DX003 (ip), vehicle: saline
[4] = endpoint: mean survival time, dose: 400.0 mg/kg/injection, schedule: Q04DX003 (ip), vehicle: saline
[5] = endpoint: mean survival time, dose: 100.0 mg/kg/injection, schedule: Q01DX001 (ip), vehicle: saline with Tween-80
[6] = endpoint: mean survival time, dose: 100.0 mg/kg/injection, schedule: Q04DX003 (ip), vehicle: saline with Tween-80
[7] = endpoint: mean survival time, dose: 200.0 mg/kg/injection, schedule: Q04DX003 (ip), vehicle: saline with Tween-80
[8] = endpoint: mean survival time, dose: 400.0 mg/kg/injection, schedule: Q04DX003 (ip), vehicle: saline with Tween-80
[9] = endpoint: mean survival time, dose: 25.0 mg/kg/injection, schedule: Q01DX009 (ip), vehicle: saline with Tween-80
[10] = endpoint: mean survival time, dose: 50.0 mg/kg/injection, schedule: Q01DX009 (ip), vehicle: saline with Tween-80
[11] = endpoint: mean survival time, dose: 100.0 mg/kg/injection, schedule: Q01DX009 (ip), vehicle: saline with Tween-80
[12] = endpoint: mean survival time, dose: 200.0 mg/kg/injection, schedule: Q01DX001 (ip), vehicle: saline with Tween-80
[13] = endpoint: mean survival time, dose: 200.0 mg/kg/injection, schedule: Q01DX009 (ip), vehicle: saline with Tween-80
[14] = endpoint: mean survival time, dose: 400.0 mg/kg/injection, schedule: Q01DX001 (ip), vehicle: saline with Tween-80
[15] = endpoint: mean survival time, dose: 400.0 mg/kg/injection, schedule: Q01DX009 (ip), vehicle: saline with Tween-80

Measured: T/C

COC(=O)[C@@]12OC[C@]34[C@H]([C@@H](O)[C@@H]1O)[C@@]1(C)CC(=O)C(O)=C(C)[C@@H]1C[C@H]3OC(=O)[C@H](OC(=O)/C=C(\C)C(C)C)[C@@H]24
inactive: endpoint: mean survival time, dose: 125.0 micrograms/kg/injection, schedule: Q01DX009 (ip), vehicle: saline + alcohol 120 % of control | endpoint: mean survival time, dose: 250.0 micrograms/kg/injection, schedule: Q01DX009 (ip), vehicle: saline + alcohol 106 % of control | endpoint: mean survival time, dose: 500.0 micrograms/kg/injection, schedule: Q01DX009 (ip), vehicle: saline + alcohol 112 % of control | endpoint: mean survival time, dose: 1000.0 micrograms/kg/injection, schedule: Q01DX009 (ip), vehicle: saline + alcohol 120 % of control | endpoint: median survival time, dose: 0.25 mg/kg/injection, schedule: Q01DX009 (ip), vehicle: saline + alcohol 120 % of control and 122 % of control | endpoint: median survival time, dose: 0.5 mg/kg/injection, schedule: Q01DX009 (ip), vehicle: saline + alcohol 120 % of control

CN(C)C1C(c2ccccc2)S(=O)(=O)C1(C)C (centres undefined)
inactive: [1] 100 % of control | [2] 96 % of control | endpoint: mean survival time, dose: 200.0 mg/kg/injection, schedule: Q01DX001 (ip), vehicle: saline 100 % of control | [3] 101 % of control | endpoint: mean survival time, dose: 400.0 mg/kg/injection, schedule: Q01DX001 (ip), vehicle: saline 100 % of control | [4] 97 % of control

CCOC(=O)c1cc(C[N+](C)(C)C)oc1C
inactive: endpoint: mean survival time, dose: 25.0 mg/kg/injection, schedule: Q01DX001 (ip), vehicle: saline 96 % of control | endpoint: mean survival time, dose: 50.0 mg/kg/injection, schedule: Q01DX001 (ip), vehicle: saline 102 % of control | [5] 106 % of control | [1] 98 % of control

CC1(C)SSC(C)(C)SS1
inactive: [6] 106 % of control | [7] 97 % of control | [8] 103 % of control

CC1=C(/C=C/C(C)=C/C=C/C(C)=C/C=O)C(C)(C)CCC1
inactive: endpoint: median survival time, dose: 6.25 mg/kg/injection, schedule: Q01DX005 (ip), vehicle: saline with Tween-80 105 % of control | endpoint: median survival time, dose: 12.5 mg/kg/injection, schedule: Q01DX005 (ip), vehicle: saline with Tween-80 100 % of control | endpoint: median survival time, dose: 25.0 mg/kg/injection, schedule: Q01DX005 (ip), vehicle: saline with Tween-80 97 % of control and 103 % of control | endpoint: median survival time, dose: 50.0 mg/kg/injection, schedule: Q01DX005 (ip), vehicle: saline with Tween-80 100 % of control and 101 % of control | endpoint: median survival time, dose: 100.0 mg/kg/injection, schedule: Q01DX005 (ip), vehicle: saline with Tween-80 104 % of control

C1Cn2nnnc2N1
inactive: [2] 103 % of control | [3] 103 % of control | [4] 94 % of control

CC(C)C1=CC2=CCC3C(C)(C(=O)O)CCCC3(C)C2CC1 (centres undefined)
inactive: [9] 103 % of control | [10] 98 % of control | [5] 98 % of control | [11] 96 % of control | [12] 95 % of control | [13] 96 % of control | [14] 102 % of control | [15] 97 % of control

O=C1CCC2(c3ccccc3)C1C2c1ccccc1 (centres undefined)
inactive: [6] 110 % of control | [7] 112 % of control | [8] 101 % of control

O=C(NN=C1CCCCC1)c1ccccc1
inactive: [11] 100 % of control | [6] 97 % of control | [13] 100 % of control | [7] 100 % of control | [8] 101 % of control

COc1ccc(C(=O)CC(C(=O)O)c2ccc(OC)c(OC)c2)cc1OC (centres undefined)
inactive: [6] 98 % of control | [7] 102 % of control | [8] 91 % of control

N#CC(C#N)=C1CCN2CCCc3cccc1c32
inactive: [5] 100 % of control | [12] 95 % of control | [14] 111 % of control

Cc1cc2nc3c(=O)[nH]c(=O)nc-3n(CC(O)C(O)C(O)C(O)CO)c2cc1C (centres undefined)
inactive: endpoint: mean survival time, dose: 25.0 mg/kg/injection, schedule: Q01DX009 (ip), vehicle: saline 101 % of control | endpoint: mean survival time, dose: 25.0 mg/kg/injection, schedule: Q01DX009 (ip), vehicle: suspension in saline 96 % of control | endpoint: mean survival time, dose: 50.0 mg/kg/injection, schedule: Q01DX009 (ip), vehicle: saline 93 % of control | endpoint: mean survival time, dose: 50.0 mg/kg/injection, schedule: Q01DX009 (ip), vehicle: suspension in saline 104 % of control | endpoint: mean survival time, dose: 100.0 mg/kg/injection, schedule: Q01DX009 (ip), vehicle: saline 95 % of control | endpoint: mean survival time, dose: 100.0 mg/kg/injection, schedule: Q01DX009 (ip), vehicle: suspension in saline 102 % of control | endpoint: mean survival time, dose: 200.0 mg/kg/injection, schedule: Q01DX009 (ip), vehicle: saline 98 % of control | endpoint: mean survival time, dose: 200.0 mg/kg/injection, schedule: Q01DX009 (ip), vehicle: suspension in saline 98 % of control | endpoint: mean survival time, dose: 400.0 mg/kg/injection, schedule: Q01DX009 (ip), vehicle: saline 103 % of control | endpoint: mean survival time, dose: 400.0 mg/kg/injection, schedule: Q01DX009 (ip), vehicle: suspension in saline 98 % of control | endpoint: mean survival time, dose: 800.0 mg/kg/injection, schedule: Q01DX009 (ip), vehicle: saline 95 % of control

NC(=O)Oc1cccc(OC(N)=O)c1
inactive: endpoint: mean survival time, dose: 25.0 mg/kg/injection, schedule: Q01DX009 (ip), vehicle: water 95 % of control | endpoint: mean survival time, dose: 50.0 mg/kg/injection, schedule: Q01DX009 (ip), vehicle: water 106 % of control | endpoint: mean survival time, dose: 100.0 mg/kg/injection, schedule: Q01DX009 (ip), vehicle: water 106 % of control | endpoint: mean survival time, dose: 200.0 mg/kg/injection, schedule: Q01DX009 (ip), vehicle: water 104 % of control | endpoint: mean survival time, dose: 400.0 mg/kg/injection, schedule: Q01DX009 (ip), vehicle: water 106 % of control

CC1(C)CN(c2ccccc2)N(CN2CCOCC2)C1=O
inactive: endpoint: mean survival time, dose: 12.5 mg/kg/injection, schedule: Q01DX009 (ip), vehicle: Klucel (hydroxypropylcellulose) (HPC) 89 % of control

CCOC(OCC)c1cc[n+](CCc2ccc(OC)c(OC)c2)cc1
inactive: [2] 96 % of control

NC(=S)c1ncnc2c1ncn2C1OC(CO)C(O)C1O (centres undefined)
inactive: endpoint: median survival time, dose: 8.75 mg/kg/injection, schedule: Q01DX005 (ip), vehicle: water 103 % of control | endpoint: median survival time, dose: 17.5 mg/kg/injection, schedule: Q01DX005 (ip), vehicle: water 103 % of control and 107 % of control | endpoint: median survival time, dose: 35.0 mg/kg/injection, schedule: Q01DX005 (ip), vehicle: water 120 % of control and 111 % of control | endpoint: median survival time, dose: 70.0 mg/kg/injection, schedule: Q01DX005 (ip), vehicle: water 122 % of control and 124 % of control

CC1OC(=O)C(C(C)C)NC(=O)C(C(C)C)OC(=O)C(C(C)C)NC(=O)C(C)OC(=O)C(C(C)C)NC(=O)C(C(C)C)OC(=O)C(C(C)C)NC(=O)C(C)OC(=O)C(C(C)C)NC(=O)C(C(C)C)OC(=O)C(C(C)C)NC1=O (centres undefined)
inactive: endpoint: mean survival time, dose: 1.25 mg/kg/injection, schedule: Q01DX009 (ip), vehicle: saline with Tween-80 109 % of control | endpoint: mean survival time, dose: 2.5 mg/kg/injection, schedule: Q01DX009 (ip), vehicle: saline with Tween-80 103 % of control and 107 % of control | endpoint: mean survival time, dose: 5.0 mg/kg/injection, schedule: Q01DX009 (ip), vehicle: saline with Tween-80 103 % of control and 110 % of control | endpoint: mean survival time, dose: 10.0 mg/kg/injection, schedule: Q01DX009 (ip), vehicle: saline with Tween-80 106 % of control | endpoint: mean survival time, dose: 20.0 mg/kg/injection, schedule: Q01DX009 (ip), vehicle: saline with Tween-80 112 % of control

O=C(Nc1cccc2c(OC(=O)C(Cl)Cl)c(N=Nc3ccc(S(=O)(=O)Nc4nccs4)cc3)cc(N=Nc3ccc(S(=O)(=O)Nc4nccs4)cc3)c12)C(Cl)Cl (tested in a mixture with another compound)
inactive: endpoint: mean survival time, dose: 3.12 mg/kg/injection, schedule: Q01DX009 (ip), vehicle: saline with Tween-80 96 % of control and 101 % of control | endpoint: mean survival time, dose: 6.25 mg/kg/injection, schedule: Q01DX009 (ip), vehicle: saline with Tween-80 95 % of control and 101 % of control | endpoint: mean survival time, dose: 12.5 mg/kg/injection, schedule: Q01DX009 (ip), vehicle: saline with Tween-80 96 % of control and 102 % of control | [9] 101 % of control and 106 % of control | [10] 101 % of control and 110 % of control | [11] 113 % of control and 112 % of control | endpoint: median survival time, dose: 100.0 mg/kg/injection, schedule: Q01DX009 (ip), vehicle: saline with Tween-80 113 % of control | endpoint: median survival time, dose: 200.0 mg/kg/injection, schedule: Q01DX009 (ip), vehicle: saline with Tween-80 106 % of control | endpoint: median survival time, dose: 400.0 mg/kg/injection, schedule: Q01DX009 (ip), vehicle: saline with Tween-80 100 % of control

CCOC(=O)c1ccc(OC(=O)Nc2ccccc2OC)cc1
inactive: [11] 96 % of control | [6] 103 % of control | [13] 92 % of control | [7] 100 % of control | [15] 94 % of control | [8] 102 % of control

Nc1ccccc1Nc1ccncc1
inactive: [9] 100 % of control | [10] 101 % of control | [6] 91 % of control
